Source: PMC6480704, “Antiproliferative Aspidosperma-Type Monoterpenoid Indole Alkaloids from Bousigonia mekongensis Inhibit Tubulin Polymerization” (Molecules, 2019)
“Also recorded” adds a separate entry of the source. Read-outs that look alike come from different tables or passages of the source.

Legend:
[1] = test system: A549 (lung carcinoma); test: Antiproliferative SRB assay, A549; assay type: cell-based; settings: Homo sapiens, A549, SRB assay, 72 h, read-out: IC50 A549
Protocol: (§1) We tested the fourteen known aspidosperma-type alkaloids (1–14) against chemosensitive KB (originally isolated from epidermoid carcinoma of the nasopharynx) and P-gp over-expressing multidrug-resistant (MDR) KB subline KB-VIN, as well as three additional human cancer cell lines, A549 (lung carcinoma), MDA-MB-231 (triple negative breast cancer), and MCF-7 (estrogen receptor-positive breast cancer), using a sulforhodamine B (SRB) assay (Table 1).
(§2) Antiproliferative activity was determined by the sulforhodamine B (SRB) colorimetric assay as previously described. In brief, human tumor cell lines were cultured in RPMI-1640 medium containing 2 mM l-glutamine and 25 mM HEPES (Gibco), supplemented with 10% fetal bovine serum (Speciality Media), 100 µg/mL streptomycin, 100 IU/mL penicillin, and 0.25 µg/mL amphotericin B (Corning). MDR stock cells (KB-VIN) were maintained in the presence of 100 nM vincristine (VIN) (Sigma-Aldrich, Saint Louis, MI, USA).
(§3) Freshly trypsinized cell suspensions were seeded in 96-well microtiter plates at densities of 4000–11,000 cells per well (based on the cell lines) with compounds. After 72 h in culture with test compounds, cells were fixed in 10% trichloroacetic acid followed by staining with 0.04% sulforhodamine B (Sigma-Aldrich). The bound SRB was solubilized in 10 mM Tris-base and the absorbance at 515 nm was measured using a Microplate Reader (ELx800, Bio-Tek Instruments, Winooski, VT, USA) operated by Gen5 software (BioTek) after solubilizing the protein-bound dye with 10 mM Tris base. The mean IC50 is the concentration of agent that reduced cell growth by 50% compared with vehicle (DMSO) control under the experimental conditions and is the average from at least three independent experiments with duplicate samples.
(§4) The following human tumor cell lines were used in the assay: A549 (lung carcinoma), MDA-MB-231 (triplen-egative breast cancer), KB (originally isolated from epidermoid carcinoma of the nasopharynx), KB-VIN (VIN-resistant KB subline showing MDR phenotype by overexpressing P-gp), MCF-7 (estrogen receptor (ER)-positive, HER2-negative breast cancer). […] All cell lines were obtained from the Lineberger Comprehensive Cancer Center (UNC-CH) or from ATCC (Manassas, VA), except KB-VIN, which was a generous gift from Professor Y.-C. Cheng (Yale University). Paclitaxel was purchased from Sigma-Aldrich.

[2] = test system: MDA-MB-231 (triple negative breast cancer); test: Antiproliferative SRB assay, MDA-MB-231; assay type: cell-based; settings: Homo sapiens, MDA-MB-231, SRB assay, 72 h, read-out: IC50 MDA-MB-231
Protocol: as §1, §2, §3, §4

[3] = test system: KB (originally isolated from epidermoid carcinoma of the nasopharynx); test: Antiproliferative SRB assay, KB; assay type: cell-based; settings: Homo sapiens, SRB assay, 72 h, read-out: IC50 KB
Protocol: as §1, §2, §3, §4

[4] = test system: KB-VIN (VIN-resistant KB subline showing MDR phenotype by overexpressing P-gp); test: Antiproliferative SRB assay, KB-VIN; settings: Homo sapiens, KBVIN, 72 h, read-out: IC50 KB-VIN
Protocol: as §1, §2, §3, §4

[5] = test system: MCF-7 (estrogen receptor-positive breast cancer); test: Antiproliferative SRB assay, MCF-7; assay type: cell-based; settings: Homo sapiens, MCF7, SRB assay, 72 h, read-out: IC50 MCF-7
Protocol: as §1, §2, §3, §4

[6] = target: T1, tubulin (colchicine site) (Bos taurus, UniProt P81947+Q6B856); test: Inhibition of [3H]colchicine binding to tubulin; set-up: species or system bovine; settings: 5 μM [3H]colchicine, 1 μM tubulin, 5 μM test compound, 37 °C, 10 min, NA = not active; for inhibition at 5 µM: read-out: Tubulin Assay ICB: percent inhibition of [3H]colchicine binding
T1 construct: electrophoretically homogeneous bovine brain tubulin; from tissue; host or cells: bovine brain
T1 sequence (P81947 whole entry): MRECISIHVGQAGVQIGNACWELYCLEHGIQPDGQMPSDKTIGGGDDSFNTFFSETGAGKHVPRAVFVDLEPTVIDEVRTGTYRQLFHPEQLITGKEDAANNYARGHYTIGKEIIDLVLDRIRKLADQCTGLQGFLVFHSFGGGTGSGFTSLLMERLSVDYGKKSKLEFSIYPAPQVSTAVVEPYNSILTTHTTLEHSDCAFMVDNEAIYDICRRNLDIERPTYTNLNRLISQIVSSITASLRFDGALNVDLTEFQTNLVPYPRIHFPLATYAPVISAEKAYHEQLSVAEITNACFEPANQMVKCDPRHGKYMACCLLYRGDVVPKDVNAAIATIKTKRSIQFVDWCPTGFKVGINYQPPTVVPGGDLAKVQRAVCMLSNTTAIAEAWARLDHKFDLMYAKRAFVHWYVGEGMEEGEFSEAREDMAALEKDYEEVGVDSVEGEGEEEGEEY
T1 sequence (Q6B856 whole entry): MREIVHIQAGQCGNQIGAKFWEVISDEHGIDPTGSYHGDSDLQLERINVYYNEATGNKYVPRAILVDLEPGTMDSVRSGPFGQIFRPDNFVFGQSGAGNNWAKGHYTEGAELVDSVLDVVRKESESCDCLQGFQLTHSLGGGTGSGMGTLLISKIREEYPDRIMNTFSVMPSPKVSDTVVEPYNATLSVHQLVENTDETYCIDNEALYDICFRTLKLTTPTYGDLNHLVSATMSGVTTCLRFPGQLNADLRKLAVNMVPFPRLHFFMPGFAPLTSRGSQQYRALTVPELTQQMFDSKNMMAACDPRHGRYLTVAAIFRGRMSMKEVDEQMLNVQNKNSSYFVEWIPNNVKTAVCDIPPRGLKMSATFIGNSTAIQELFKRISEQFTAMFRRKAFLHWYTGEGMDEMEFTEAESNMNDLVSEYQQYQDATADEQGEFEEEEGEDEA
Protocol: The data for 6 and 7 indicate that both alkaloids bind to tubulin and inhibit its assembly, and these effects are closely related to their antiproliferative activities against tumor cells. Thus, we further investigated whether the inhibition of tubulin polymerization was the major action of these alkaloids.
(§5) Inhibitory effects of compounds on tubulin assembly were evaluated using electrophoretically homogeneous bovine brain tubulin as described previously using 1.0 mg/mL (10 μM) tubulin. The turbidity development as tubulin assembly was initiated by adding 0.4 mM GTP and followed for 20 min at 30 °C following a rapid temperature jump. Compound concentrations as EC50 values that inhibited the increase in turbidity by 50% relative to a control sample were determined. In colchicine inhibition assays, tubulin (1.0 μM) was incubated with 5.0 μM [^3H] colchicine and 5.0 μM test compound at 37 °C for 10 min, when about 40–60% of maximum colchicine binding occurs in control samples.

[7] = target: T2, bovine brain tubulin (Bos taurus, UniProt P81947+Q6B856); test: Inhibition of purified tubulin assembly (turbidity); assay type: biochemical; settings: 10 μM tubulin, 0.4 mM GTP, 20 min at 30 °C; NA = not active (IC50 > 40 µM); read-out: Tubulin Assay ITA: inhibition of purified tubulin assembly, EC50
T2 construct: electrophoretically homogeneous bovine brain tubulin; from tissue; host or cells: bovine brain
T2 sequence (P81947 whole entry): as the sequence (P81947 whole entry) above
T2 sequence (Q6B856 whole entry): as the sequence (Q6B856 whole entry) above
Protocol: as §5

[8] = test system: A549, MDA-MB-231, KB, KB-VIN, and MCF-7; test: Antiproliferative SRB assay, values stated across several cell lines; assay type: cell-based, human; settings: for antiproliferative activity (in words): five human tumor cell lines including MDR subline KB-VIN
Protocol: as §1, §2, §3, §4

[9] = test system: KB-VIN cells; test: Cell cycle analysis by flow cytometry (PI staining); assay type: cell-based, human; settings: 24 h, 1 × IC50 or 3 × IC50
Protocol: KB-VIN cells were treated with compounds 3, 4, 6, 7, and 13 at their IC50 (1 × IC50) or three-fold IC50 (3 × IC50) concentration, and the cell cycle progression was analyzed by flow cytometer (Figure 2A).
(§6) Figure 2 Mitotic defects in KB-VIN cells treated by compounds. […] Cell cycle distributions (sub-G1, G1, S, G2/M) were analyzed using flow cytometry after staining cells with propidium iodide (PI). […] Fixed cells were stained with antibodies to α-tubulin (green) and phospho-histone H3 (pH3, red), and DAPI was used for DNA (blue). Stained cells were observed by confocal fluorescence microscope. The represented image is a projection of 15~20 optical sections acquired at 0.5~1 µm intervals. […] Bar, 0.025 mm. Additional images are available in Supplementary Figure S1.
KB-VIN cells were seeded in 12-well plates at a density of 1 × 10^5 per well and incubated overnight. […] The DNA contents of stained cells were analyzed by flow cytometer (LSRFortessa, BD Biosciences) controlled by FACSDiva software (BD Biosciences). Paclitaxel (PXL) was used at 3 or 6 µM. […] Experiments were repeated a minimum of two times.

[10] = test system: KB-VIN cells; test: Immunofluorescence staining of α-tubulin, pH3 and DNA; assay type: cell-based, human; settings: 24 h, 3 × IC50
Protocol: as §6
To determine whether the cell cycle arrest was due to an antimicrotubule effect, cells treated with compounds were analyzed by immunocytochemistry using antibodies to α-tubulin for microtubules and mitotic spindles, Ser10-phosphorylated histone H3 (pH3) for the condensed chromatins and 4′,6-diamidino-2-phenylindole (DAPI) for DNA. […] Thus, we concluded that these alkaloids are tubulin polymerization inhibitors.
Immunocytochemical analysis was performed as previously described. […] After treatment of cells with the agent for 24 h, cells were fixed with 4% paraformaldehyde in PBS and permeabilized with 0.5% Triton X-100 in PBS. Fixed cells were labeled with mouse monoclonal antibody to α-tubulin (B5-1-2, Sigma) and rabbit IgG to Ser10-phosphorylated histone H3 (p-H3) (#06570, EMD Millipore), followed by FITC-conjugated antibody to mouse IgG (Sigma) and Alexa Fluor 549-conjugated antibody to rabbit IgG (Life Technologies). Nuclei were labeled with DAPI (Sigma). Fluorescently-labeled cells were observed using a confocal microscope (Zeiss, LSM700) with ZEN (black edition) software (Zeiss). The 15~20 optical sections acquired at 0.5~1 µm intervals were stacked and reconstructed using ZEN (black edition) software. Experiments were repeated at least twice for each compound. Final images were prepared using Adobe Photoshop CS3.

[11] = Homo sapiens, A549, KB, KB-VIN, range stated for the group of compounds, read-out: IC50 values ranging over A549, KB and KB-VIN cells

COc1ccc(/C=C\c2cc(OC)c(OC)c(OC)c2)cc1O [CA-4, combretastatin A-4, reference compound]
IC50 ([1]; positive controls, unit nM): 5.5 ± 0.1 nM
IC50 ([2]; positive controls, unit nM): 8.2 ± 0.5 nM
IC50 ([3]; positive controls, unit nM): 3.6 ± 0.1 nM
IC50 [4]: 3.8 ± 0.1 nM
IC50 ([5]; positive controls, unit nM): 487 ± 11 nM
Tubulin Assay ICB: percent inhibition of [3H]colchicine binding [6]: totally inhibited
inhibition at 5 µM [6]: 100 ± 0.4%

CC[C@@]12CC(C(=O)OC)=C3Nc4ccccc4[C@@]34CCN(C[C@@H]3O[C@@H]31)[C@@H]24 [Compound 5, lochnericine]
IC50 [1]: > 40000 nM
IC50 [2]: > 40000 nM
IC50 [3]: > 40000 nM
IC50 [4]: > 40000 nM
IC50 [5]: > 40000 nM
EC50 [7]: > 40000 nM
inhibition at 5 µM [6]: 0%
antiproliferative activity (in words) [8]: essentially inactive

CC[C@@]12CC(C(=O)OC)=C3Nc4cc(OC)ccc4[C@@]34CCN(C[C@@H]3O[C@@H]31)[C@@H]24 [Compound 6, 14,15-α-epoxy-11-methoxytabersonine]
IC50 [1]: 500 nM
IC50 [2]: 800 nM
IC50 [3]: 500 nM
IC50 [4]: 500 nM
IC50 [5]: 800 nM
EC50 [7]: 700 nM
inhibition at 5 µM [6]: 54 ± 0.8%
effect on cell cycle progression [9]: accumulation of cells in the G2/M phase; also recorded: cell cycle arrest at G2/M
microtubule / mitotic spindle morphology [10]: dotted tubulin aggregations without spindles
fold rise in potency by a methoxy group at C-11 ([8]; 6 compared with 5, 9 compared with 8): ~ 60 fold
IC50 [8, 11]: 500 to 900 nM
antiproliferative activity (in words) [8]: exhibited antiproliferative activity against all cell lines; also recorded: significant antiproliferative effects against all five tumor cell lines

COC(=O)C1=C2Nc3cc(O)ccc3C23CCN2CC=CC(C(C)OC(C)=O)(C1)C23 [Compound 13, 19-(R)-acetoxy-11-hydroxytabersonine]
IC50 [1]: 700 ± 100 nM
IC50 [2]: 900 nM
IC50 [3]: 700 nM
IC50 [4]: 700 nM
IC50 [5]: 6700 ± 100 nM
effect on cell cycle progression [9]: accumulation of cells in the G2/M phase; also recorded: cell cycle arrest at G2/M
microtubule / mitotic spindle morphology [10]: dotted tubulin aggregations without spindles
IC50 [8, 11]: 500 to 900 nM
antiproliferative activity (in words) [8]: exhibited antiproliferative activity against all cell lines; also recorded: significant antiproliferative effects against all five tumor cell lines
IC50 ([8]; five human tumor cell lines, read-out: IC50 range over the cell lines tested): 600 to 6700 nM

CC[C@@]12CC(C(=O)OC)=C3Nc4cc(O)ccc4[C@@]34CCN(C[C@@H]3O[C@@H]31)[C@@H]24 [Compound 7, 11-hydroxylochnericine]
IC50 [1]: 5600 ± 100 nM
IC50 [2]: 9800 ± 900 nM
IC50 [3]: 5400 ± 300 nM
IC50 [4]: 6100 ± 400 nM
IC50 [5]: 10800 ± 800 nM
EC50 [7]: 4600 ± 100 nM
inhibition at 5 µM [6]: 35 ± 1%
effect on cell cycle progression [9]: accumulation of cells in the G2/M phase; also recorded: cell cycle arrest at G2/M
microtubule / mitotic spindle morphology [10]: dotted tubulin aggregations without spindles
antiproliferative activity (in words) [8]: exhibited antiproliferative activity against all cell lines; also recorded: significant antiproliferative effects against all five tumor cell lines
